Source: paper PMC9238401, “Peptide Conjugates Derived from flg15, Pep13, and PIP1 That Are Active against Plant-Pathogenic Bacteria and Trigger Plant Defense Responses” (Applied and Environmental Microbiology, 2022)
Non-standard residues stand in square brackets, D forms with d. Residues, ends and D or L forms follow the SMILES beside them. *: point of attachment. Butyryl = CCCC(=O)*

Legend:
horse erythrocytes = details: TRIS buffer pH 7.2, 1 h, 37°C, absorbance 540 nm, relative to melittin 100 μM, ± confidence interval (α = 0.05)
Summary of the method: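 Horse erythrocytes washed in 10 mM Tris, 150 mM NaCl, pH 7.2 were mixed 1:1 with compound solutions at 750, 500, 300 and 100 μM and shaken 1 h at 37°C. Hemoglobin release read at 540 nm in supernatant; % hemolysis relative to buffer and melittin control.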

tobacco leaves = experiment: Effect of peptide infiltration on tobacco leaves (phytotoxicity); format: in vivo
Summary of the method: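 Peptide solutions at 50, 150 and 250 μM were infiltrated into the mesophyll of fully expanded tobacco leaves, with at least three leaves per peptide and dose on different plants. Water and equimolar melittin served as controls. Lesion diameter was measured 48 h after infiltration.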

[1] = HPLC retention time as indicator of relative hydrophobicity; format: physicochemical; details: chromatographic, Kromasil 100 C18 (4.6 mm × 40 mm, 3 μm), linear gradient 2 to 100% B over 12 min, 1 mL/min; A 0.1% aqueous TFA, B 0.1% TFA in CH3CN; used as indicator of relative hydrophobicity
Description: The parameters related to the structure of the peptide conjugates (sequence, charge, hydrophobic ratio [HR], and HPLC retention time), as well as their physicochemical properties (grand average hydropathicity [GRAVY] and hydrophobic moment [<μH>]) obtained from the online programs ProtParam (Expasy server) and HeliQuest are included in Table 1.
Peptides were analyzed under standard analytical HPLC conditions. Method A: peptides were analyzed with a Dionex liquid chromatography instrument composed of a UV/Vis Dionex UVD170U detector, a P680 Dionex pump, an ASI-100 Dionex automatic injector, and Chromeleon 6.60 software. Detection was performed at a wavelength of 220 nm. Solvent A was 0.1% aqueous trifluoroacetic acid (TFA), and solvent B was 0.1% TFA in CH3CN. Analyses were carried out with a Kromasil 100 C18 (4.6 mm × 40 mm, 3 μm) column with a linear gradient of 2 to 100% B over 7 min at a flow rate of 1 mL/min. Method B: peptides were analyzed with a 1260 Infinity II liquid chromatography instrument (Agilent Technologies) composed of a diode array detector HS, a quaternary pump VL, a 1260 vial sampler, and OpenLab CDS ChemStation software. Analyses were carried out with a Kromasil 100 C18 (4.6 mm × 40 mm, 3 μm) column with a linear gradient of 2 to 100% B over 12 min at a flow rate of 1 mL/min.

[2] = system: Xanthomonas axonopodis pv. vesicatoria 2133-2; details: TSB, 25°C, 48 h, OD 600 nm (Bioscreen C), three replicates, experiment repeated twice; MIC given as range
Summary of the method: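 Bacteria grown 24 h (48 h for Xanthomonas axonopodis, X. fragariae) at 25°C, suspended at 10^8 CFU mL^−1, mixed with peptide dilutions in TSB.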

[3] = system: Pseudomonas syringae pv. syringae EPS94; experiment: In vitro growth inhibition (MIC); format: cell-based; details: TSB, 25°C, 48 h, OD 600 nm (Bioscreen C), three replicates, experiment repeated twice; MIC given as range
Summary of the method: (§1)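 Bacterial suspensions (10^8 CFU mL^−1, from 24 h plates at 25°C) mixed with peptide dilutions in TSB, triplicate wells. OD600 read hourly over 48 h at 25°C with shaking. MIC = lowest concentration with no growth at end of run.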

[4] = system: Xanthomonas fragariae Xf349-9A; experiment: In vitro growth inhibition (MIC); format: cell-based; details: TSB, 25°C, 48 h, OD 600 nm (Bioscreen C), three replicates, experiment repeated twice; MIC given as range
Summary of the method: as §1

[5] = system: Erwinia amylovora PMV6076; experiment: In vitro growth inhibition (MIC); format: cell-based; details: TSB, 25°C, 48 h, OD 600 nm (Bioscreen C), three replicates, experiment repeated twice; MIC = lowest concentration with no growth, given as range
Summary of the method: as §1

[6] = system: Xanthomonas arboricola pv. pruni CFBP5563; experiment: In vitro growth inhibition (MIC); format: cell-based; details: TSB, 25°C, 48 h, OD 600 nm (Bioscreen C), three replicates, experiment repeated twice; MIC given as range
Summary of the method: as §1

[7] = system: Pseudomonas syringae pv. actinidiae Psa3700.1.1; experiment: In vitro growth inhibition (MIC); format: cell-based; details: TSB, 25°C, 48 h, OD 600 nm (Bioscreen C), three replicates, experiment repeated twice; MIC given as range
Summary of the method: as §1

[8] = 100 μL infiltrated into mesophyll, lesion diameter 48 h after infiltration, at least three leaves, ± confidence interval (α = 0.05)

H-YGIHTHKKVVFWVKFK-NH2 [PIP1-KSLW]
Percent hemolysis at 50 μM (horse erythrocytes): 7 ± 0.8%
Percent hemolysis at 150 μM (horse erythrocytes): 7 ± 1.1%
Percent hemolysis at 250 μM (horse erythrocytes): 6 ± 0.4%
Percent hemolysis at 375 μM (horse erythrocytes): 6 ± 0.4%
Size of the lesions in infiltrated tobacco leaves at 50 μM (tobacco leaves; in vivo): 0 ± 0 cm
Size of the lesions in infiltrated tobacco leaves at 150 μM (tobacco leaves; in vivo): 0.47 ± 0.24 cm
Size of the lesions in infiltrated tobacco leaves at 250 μM (tobacco leaves; in vivo): 0.70 ± 0.11 cm
tR (min), HPLC retention time (method B) [1]: 4.81 min
MIC, Xav [2]: 3.1 to 6.2 µM
MIC, Pss [3]: 6.2 to 12.5 µM
MIC, Xf [4]: 6.2 to 12.5 µM
MIC, Ea [5]: 12.5 to 25 µM
MIC, Xap [6]: 3.1 to 6.2 µM
MIC, Psa [7]: 6.2 to 12.5 µM

H-KKVVFWVKFKFKLFKKILKVL-NH2 [KSLW-BP13]
Percent hemolysis at 50 μM (horse erythrocytes): 62 ± 8.2%
Percent hemolysis at 150 μM (horse erythrocytes): 65 ± 5.9%
Percent hemolysis at 250 μM (horse erythrocytes): 77 ± 12.9%
Percent hemolysis at 375 μM (horse erythrocytes): 82 ± 10.4%
Size of the lesions in infiltrated tobacco leaves at 50 μM (tobacco leaves; [8]): 0.52 ± 0.13 cm
Size of the lesions in infiltrated tobacco leaves at 150 μM (tobacco leaves; [8]): 0.88 ± 0.15 cm
Size of the lesions in infiltrated tobacco leaves at 250 μM (tobacco leaves; [8]): 1.07 ± 0.34 cm
tR (min), HPLC retention time (method B) [1]: 6.26 min
MIC, Xav [2]: 3.1 to 6.2 µM
MIC, Pss [3]: 25 to 50 µM
MIC, Xf [4]: 1.6 to 3.1 µM
MIC, Ea [5]: 25 to 50 µM
MIC, Xap [6]: 1.6 to 3.1 µM
MIC, Psa [7]: 1.6 to 3.1 µM

Ac-KKLFKKIK(COC3H7)KYL-RINSAKDDAAGLQIA-OH [BP387-flg15, peptide conjugate, lipopeptide BP387 at N-terminus, flg15 at C-terminus]
Percent hemolysis at 50 μM (horse erythrocytes): 3 ± 0.3%
Percent hemolysis at 150 μM (horse erythrocytes): 5 ± 0.9%
Percent hemolysis at 250 μM (horse erythrocytes): 7 ± 0.2%
Percent hemolysis at 375 μM (horse erythrocytes): 9 ± 2.5%
Size of the lesions in infiltrated tobacco leaves at 50 μM (tobacco leaves; [8]): 0.23 ± 0.24 cm
Size of the lesions in infiltrated tobacco leaves at 150 μM (tobacco leaves; [8]): 0.33 ± 0.35 cm
Size of the lesions in infiltrated tobacco leaves at 250 μM (tobacco leaves; [8]): 0.93 ± 0.40 cm
tR (min), HPLC retention time (method B) [1]: 5.84 min
MIC, Xav [2]: 3.1 to 6.2 µM
MIC, Pss [3]: 3.1 to 6.2 µM
MIC, Xf [4]: 6.2 to 12.5 µM
MIC, Ea [5]: 25 to 50 µM
MIC, Xap [6]: 1.6 to 3.1 µM
MIC, Psa [7]: 6.2 to 12.5 µM

KKVVFWVKFK-RINSAKDDAAGLQIA-OH [KSLW-flg15, peptide conjugate, KSL-W at N-terminus, flg15 at C-terminus]
Percent hemolysis at 50 μM (horse erythrocytes): 4 ± 1.9%
Percent hemolysis at 150 μM (horse erythrocytes): 7 ± 3.4%
Percent hemolysis at 250 μM (horse erythrocytes): 8 ± 0.9%
Percent hemolysis at 375 μM (horse erythrocytes): 8 ± 2.7%
Size of the lesions in infiltrated tobacco leaves at 50 μM (tobacco leaves; [8]): 0 ± 0 cm
Size of the lesions in infiltrated tobacco leaves at 150 μM (tobacco leaves; [8]): 0.13 ± 0.09 cm
Size of the lesions in infiltrated tobacco leaves at 250 μM (tobacco leaves; [8]): 0.26 ± 0.05 cm
tR (min), HPLC retention time (method B) [1]: 4.75 min
MIC, Xav [2]: 6.2 to 12.5 µM
MIC, Pss [3]: > 50 µM
MIC, Xf [4]: 12.5 to 25 µM
MIC, Ea [5]: > 50 µM
MIC, Xap [6]: > 50 µM
MIC, Psa [7]: > 50 µM

CCCC(=O)NCCCC[C@H](NC(=O)[C@H](CCCCN)NC(=O)[C@H](CC(C)C)NC(=O)[C@@H](NC(=O)[C@H](CCCCN)NC(=O)[C@H](CCCCN)NC(=O)[C@@H](Cc1ccccc1)NC(=O)[C@H](CC(C)C)NC(=O)[C@H](CCCCN)NC(=O)[C@H](CCCCN)NC(C)=O)[C@@H](C)CC)C(=O)N[C@@H](CC(C)C)C(=O)N[C@@H](Cc1ccc(O)cc1)C(=O)NCC(=O)N[C@H](C(=O)N[C@@H](Cc1c[nH]cn1)C(=O)N[C@H](C(=O)N[C@@H](Cc1c[nH]cn1)C(N)=O)[C@@H](C)O)[C@@H](C)CC [BP475-PIP1] (Ac-KKL[dF]KKILKK(Butyryl)LYGIHTH-NH2)
Percent hemolysis at 50 μM (horse erythrocytes): 9 ± 1.0%
Percent hemolysis at 150 μM (horse erythrocytes): 18 ± 1.4%
Percent hemolysis at 250 μM (horse erythrocytes): 26 ± 2.8%
Percent hemolysis at 375 μM (horse erythrocytes): 39 ± 2.0%
Size of the lesions in infiltrated tobacco leaves at 50 μM (tobacco leaves; [8]): 0.47 ± 0.06 cm
Size of the lesions in infiltrated tobacco leaves at 150 μM (tobacco leaves; [8]): 1.40 ± 0.00 cm
Size of the lesions in infiltrated tobacco leaves at 250 μM (tobacco leaves; [8]): 1.67 ± 0.13 cm
tR (min), HPLC retention time (method B) [1]: 6.28 min
MIC, Xav [2]: 3.1 to 6.2 µM
MIC, Pss [3]: 6.2 to 12.5 µM
MIC, Xf [4]: 1.6 to 3.1 µM
MIC, Ea [5]: 3.1 to 6.2 µM
MIC, Xap [6]: 0.8 to 1.6 µM
MIC, Psa [7]: 1.6 to 3.1 µM

Ac-KKLfKKILKK(COC3H7)L-RINSAKDDAAGLQIA-OH [BP475-flg15, peptide conjugate, lipopeptide BP475 at N-terminus, flg15 at C-terminus]
Percent hemolysis at 50 μM (horse erythrocytes): 1 ± 1.0%
Percent hemolysis at 150 μM (horse erythrocytes): 0 ± 0.2%
Percent hemolysis at 250 μM (horse erythrocytes): 1 ± 0.3%
Percent hemolysis at 375 μM (horse erythrocytes): 1 ± 0.3%
Size of the lesions in infiltrated tobacco leaves at 50 μM (tobacco leaves; [8]): 0.43 ± 0.13 cm
Size of the lesions in infiltrated tobacco leaves at 150 μM (tobacco leaves; [8]): 1.20 ± 0.23 cm
Size of the lesions in infiltrated tobacco leaves at 250 μM (tobacco leaves; [8]): 1.23 ± 0.28 cm
tR (min), HPLC retention time (method B) [1]: 6.03 min
MIC, Xav [2]: 3.1 to 6.2 µM
MIC, Pss [3]: 6.2 to 12.5 µM
MIC, Xf [4]: 25 to 50 µM
MIC, Ea [5]: 12.5 to 25 µM
MIC, Xap [6]: 1.6 to 3.1 µM
MIC, Psa [7]: 3.1 to 6.2 µM

H-KKVVFWVKFKYGIHTH-NH2 [KSLW-PIP1]
Percent hemolysis at 50 μM (horse erythrocytes): 8 ± 1.3%
Percent hemolysis at 150 μM (horse erythrocytes): 3 ± 2.1%
Percent hemolysis at 250 μM (horse erythrocytes): 3 ± 1.2%
Percent hemolysis at 375 μM (horse erythrocytes): 5 ± 4.9%
Size of the lesions in infiltrated tobacco leaves at 50 μM (tobacco leaves; in vivo): 0.17 ± 0.17 cm
Size of the lesions in infiltrated tobacco leaves at 150 μM (tobacco leaves; in vivo): 0.53 ± 0.07 cm
Size of the lesions in infiltrated tobacco leaves at 250 μM (tobacco leaves; in vivo): 0.97 ± 0.28 cm
tR (min), HPLC retention time (method B) [1]: 4.83 min
MIC, Xav [2]: 3.1 to 6.2 µM
MIC, Pss [3]: > 50 µM
MIC, Xf [4]: 3.1 to 6.2 µM
MIC, Ea [5]: > 50 µM
MIC, Xap [6]: 3.1 to 6.2 µM
MIC, Psa [7]: > 50 µM

H-RINSAKDDAAGLQIAKKLFKKILKKL-NH2 [flg15-BP16]
Percent hemolysis at 50 μM (horse erythrocytes): 2 ± 0.1%
Percent hemolysis at 150 μM (horse erythrocytes): 3 ± 0.2%
Percent hemolysis at 250 μM (horse erythrocytes): 4 ± 0.9%
Percent hemolysis at 375 μM (horse erythrocytes): 5 ± 0.3%
Size of the lesions in infiltrated tobacco leaves at 50 μM (tobacco leaves; [8]): 0.20 ± 0.12 cm
Size of the lesions in infiltrated tobacco leaves at 150 μM (tobacco leaves; [8]): 0.49 ± 0.13 cm
Size of the lesions in infiltrated tobacco leaves at 250 μM (tobacco leaves; [8]): 0.42 ± 0.11 cm
tR (min), HPLC retention time (method B) [1]: 5.89 min
MIC, Xav [2]: 1.6 to 3.1 µM
MIC, Pss [3]: 6.2 to 12.5 µM
MIC, Xf [4]: 1.6 to 3.1 µM
MIC, Ea [5]: 3.1 to 6.2 µM
MIC, Xap [6]: 3.1 to 6.2 µM
MIC, Psa [7]: 3.1 to 6.2 µM
